From patent publication US20090048258A1, “Amide Compound” (priority 2005, published 2009) come the findings set out here.

The first test concerns the target T1, Human DGAT1 (Homo sapiens, UniProt O75907).
T1 construct: my translation of the primer: M-G-DYKDDDD-GDRGSSRRR) (N); made in house; host or cells: Sf9 insect cells (recombinant baculovirus BAC-DGAT1, pFASTBAC1); microsome fraction
T1 sequence (O75907 1-488): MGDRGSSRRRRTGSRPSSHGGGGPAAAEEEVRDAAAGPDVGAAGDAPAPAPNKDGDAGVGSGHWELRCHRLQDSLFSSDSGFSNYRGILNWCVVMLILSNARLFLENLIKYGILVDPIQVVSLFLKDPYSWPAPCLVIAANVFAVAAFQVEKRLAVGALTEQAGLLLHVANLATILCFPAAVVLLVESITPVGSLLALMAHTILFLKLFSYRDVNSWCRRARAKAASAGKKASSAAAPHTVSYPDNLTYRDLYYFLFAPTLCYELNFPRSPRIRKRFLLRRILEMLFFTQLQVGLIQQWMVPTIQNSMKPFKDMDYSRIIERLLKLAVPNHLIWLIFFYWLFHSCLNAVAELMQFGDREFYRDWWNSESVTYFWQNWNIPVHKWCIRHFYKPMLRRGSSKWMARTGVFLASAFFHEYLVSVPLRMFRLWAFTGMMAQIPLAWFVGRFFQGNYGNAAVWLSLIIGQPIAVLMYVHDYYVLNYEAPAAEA
Nature of the test: DGAT inhibitory activity: [14C]-triglyceride synthesis by DGAT1 high expression Sf9 microsome. The class given is biochemical. As to conditions: Table 1, 25 μM dioleoylglycerol, 25 μM [14C]-Oleoyl-CoA, 32° C., 15 min, read-out: DGAT inhibitory activity (according to IC50). The essentials: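 DGAT1 was overexpressed from recombinant baculovirus in Sf9 cells, and microsomes from these cells were the enzyme source. Reactions ran in 100 mM Tris-HCl pH 7.5, 250 mM sucrose, 150 mM MgCl2 and 0.01% BSA. [14C]-triglyceride was extracted into chloroform, separated by TLC and quantified by imaging plate, with inhibition calculated against control and blank (no microsome) counts.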
The term IC50 denotes the concentration that gives 50% inhibition. Take `CCCc1cc(C(=O)CCC(=O)Nc2nc(-c3ccccc3)c(Cc3ccccc3)s2)ccc1OCC` [Example 24, N-(5-benzyl-4-phenyl-1,3-thiazol-2-yl)-4-(4-ethoxy-3-propylphenyl)-4-oxobutanamide]: the concentration for half-maximal inhibition (IC50) fell in the range of 10 to 50 nM.

Regarding `CCOC(=O)/C=C/c1ccc(Cc2sc(NC(=O)CCC(=O)c3ccc(OCC)c(OCC)c3)cc2-c2ccccc2)cc1` [Example 51, ethyl (2E)-3-{4-[(5-{[4-(3,4-diethoxyphenyl)-4-oxobutanoyl]amino}-3-phenyl-2-thienyl)methyl]phenyl}acrylate], the IC50 was in the range of 50 to 500 nM.

For `CCOc1ccc(C(=O)CCC(=O)Nc2cc(-c3ccccc3)c(Cc3ccccc3)s2)cc1` [Example 44, N-(5-benzyl-4-phenyl-2-thienyl)-4-(4-ethoxyphenyl)-4-oxobutanamide], the IC50 lay in the range of 50 to 500 nM.

Turning to `CCOc1ccc(C(=O)CCC(=O)Nc2cc(-c3ccccc3)nc(-c3ccccc3)n2)cc1OCC` [Example 14, 4-(3,4-diethoxyphenyl)-N-(2,6-diphenylpyrimidin-4-yl)-4-oxobutanamide], the IC50 lay in the range of 50 to 500 nM.

As for `CCOc1ccc(C(=O)CCC(=O)Nc2ccc(CN3CCOCC3)c(-c3ccccc3)c2)cc1OCC` [Example 39, 4-(3,4-diethoxyphenyl)-N-(6-(morpholin-4-ylmethyl)biphenyl-3-yl]-4-oxobutanamide], the IC50 was in the range of 500 to 10000 nM.

Consider `CCOc1ccc(C(=O)CCC(=O)Nc2cnn(Cc3ccccc3)c2-c2ccccc2)cc1OCC` [Example 21, N-(1-benzyl-5-phenyl-1H-pyrazol-4-yl)-4-(3,4-diethoxyphenyl)-4-oxobutanamide], for which the IC50 lay in the range of 500 to 10000 nM.

As for `COCOc1ccc(C(=O)CCC(=O)Nc2nc(-c3ccccc3)c(Cc3ccccc3)s2)cc1` [Example 32, N-(5-benzyl-4-phenyl-1,3-thiazol-2-yl)-4-oxo-4-[4-(methoxymethoxy)phenyl]butanamide], the IC50 lay in the range of 10 to 50 nM.

As for `CCOc1ccc(C(=O)CCC(=O)Nc2ccc(CCC(=O)O)c(-c3ccccc3)c2)cc1OCC` [Example 10, 3-(5-{[4-(3,4-diethoxyphenyl)-4-oxobutanoyl]amino}biphenyl-2-yl)propanoic acid], the IC50 lay within 500 to 10000 nM.

The test is the same for the next values; noted with them: Table 2, 25 μM dioleoylglycerol, 25 μM [14C]-Oleoyl-CoA, 32° C., 15 min, read-out: DGAT inhibitory activity (according to IC50).
With `CCOc1ccc(C(=O)CCC(=O)Nc2cc(-c3cc(OC)c(OC)c(OC)c3)cc(-c3ccccc3)n2)cc1OCC` [Example 150, 4-(3,4-diethoxyphenyl)-4-oxo-N-[6-phenyl-4-(3,4,5-trimethoxyphenyl)pyridin-2-yl]butanamide], the half-inhibitory concentration (IC50) is 500 to 10000 nM.

Regarding `CCOc1ccc(C(=O)CCC(=O)Nc2cn(-c3ccccc3)nc2-c2ccc(F)cc2)cc1OCC` [Example 108, 4-(3,4-diethoxyphenyl)-N-[3-(4-fluorophenyl)-1-phenyl-1H-pyrazol-4-yl]-4-oxobutanamide], the IC50 lay in the range of 50 to 500 nM.

With `COc1ccc(C(=O)CCC(=O)Nc2nc(-c3ccccc3)c(Cc3ccccc3)s2)cc1OC` [Example 71, N-(5-benzyl-4-phenyl-1,3-thiazol-2-yl)-4-(3,4-dimethoxyphenyl)-4-oxobutanamide], the IC50 is no more than 10 nM.

As for `CCOc1ccc(C(=O)CCC(=O)Nc2nc3ccccc3c(-c3ccccc3)c2C)cc1OCC` [Example 88, 4-(3,4-diethoxyphenyl)-N-(3-methyl-4-phenylquinolin-2-yl)-4-oxobutanamide], the IC50 lay in the range of 50 to 500 nM.

As to `CCOc1ccc(C(=O)CCC(=O)Nc2cc(-c3cccc(OC(F)(F)F)c3)cc(-c3ccccc3)n2)cc1OCC` [Example 143, 4-(3,4-diethoxyphenyl)-4-oxo-N-{6-phenyl-4-[3-(trifluoromethoxy)phenyl]pyridin-2-yl}butanamide], the IC50 was in the range of 50 to 500 nM.

As to `CCOc1ccc(C(=O)CCC(=O)Nc2cc(-c3ccccc3)c(Cc3ccccc3)s2)cc1Br` [Example 98, N-(5-benzyl-4-phenyl-2-thienyl)-4-(3-bromo-4-ethoxyphenyl)-4-oxobutanamide], the IC50 lay within 50 to 500 nM.

`O=C(CCC(=O)c1ccc2c(c1)CCO2)Nc1cc(-c2ccc(CN3CCOCC3)cc2)cc(-c2ccccc2)n1` [Example 161, 4-(2,3-dihydro-1-benzofuran-5-yl)-N-{4-[4-(morpholin-4-ylmethyl)phenyl]-6-phenylpyridin-2-yl}-4-oxobutanamide]: the IC50 was 500 to 10000 nM.

Regarding `CCOc1ccc(C(=O)CCC(=O)Nc2cc(-c3cccc(CO)c3)cc(-c3ccccc3)n2)cc1OCC` [Example 136, 4-(3,4-diethoxyphenyl)-N-{4-[3-(hydroxymethyl)phenyl]-6-phenylpyridin-2-yl}-4-oxobutanamide], the IC50 is 50 to 500 nM.

As for `CCOc1ccc(C(=O)CCC(=O)Nc2cc(-c3ccc(O)cc3)cc(-c3ccccc3)n2)cc1OCC` [Example 123, 4-(3,4-diethoxyphenyl)-N-[4-(4-hydroxyphenyl)-6-phenylpyridin-2-yl]-4-oxobutanamide], the IC50 is no more than 10 nM.

`CCOc1ccc(C(=O)CCC(=O)Nc2cc(-c3ccc(C#N)cc3)cc(-c3ccccc3)n2)cc1OCC` [Example 122, N-[4-(4-cyanophenyl)-6-phenylpyridin-2-yl]-4-(3,4-diethoxyphenyl)-4-oxobutanamide]: the IC50 lay in the range of 50 to 500 nM.

For the compound `CCOc1ccc(C(=O)CCC(=O)Nc2cc(-c3ccccc3Cl)nn2-c2ccc(C)cc2)cc1OCC` [Example 101, N-[3-(2-chlorophenyl)-1-(4-methylphenyl)-1H-pyrazol-5-yl]-4-(3,4-diethoxyphenyl)-4-oxobutanamide], the IC50 was 500 to 10000 nM.

Consider `O=C(CCC(=O)c1ccc2c(c1)CCCC2)Nc1cc(-c2ccccc2)cc(-c2ccccc2)n1` [Example 105, N-(4,6-diphenylpyridin-2-yl)-4-oxo-4-(5,6,7,8-tetrahydronaphthalen-2-yl)butanamide], for which the IC50 lay within 50 to 500 nM.

Turning to `COC(=O)c1cccc(-c2cc(NC(=O)CCC(=O)c3ccc4c(c3)CCO4)nc(-c3ccccc3)c2)c1` [Example 170, methyl 3-(2-{[4-(2,3-dihydro-1-benzofuran-5-yl)-4-oxobutanoyl]amino}-6-phenylpyridin-4-yl)benzoate], the IC50 was in the range of 500 to 10000 nM.

For the compound `N#Cc1ccccc1-c1cc(NC(=O)CCC(=O)c2ccc3c(c2)CCO3)nc(-c2ccccc2)c1` [Example 176, N-[4-(2-cyanophenyl)-6-phenylpyridin-2-yl]-4-(2,3-dihydro-1-benzofuran-5-yl)-4-oxobutanamide], the IC50 was no more than 10 nM.

As for `O=C(CCC(=O)c1ccc2c(c1)CCO2)Nc1cc(-c2cccc(CO)c2)cc(-c2ccccc2)n1` [Example 167, 4-(2,3-dihydro-1-benzofuran-5-yl)-N-{4-[3-(hydroxymethyl)phenyl]-6-phenylpyridin-2-yl}-4-oxobutanamide], the 50% inhibitory concentration (IC50) was in the range of 50 to 500 nM.

As to `CCOc1ccc(C(=O)CCC(=O)Nc2sc(-c3ccccc3)nc2-c2ccccc2)cc1` [Example 66, 4-(4-ethoxyphenyl)-N-(2,4-diphenyl-1,3-thiazol-5-yl)-4-oxobutanamide], the IC50 is 500 to 10000 nM.

For the compound `COC(=O)CCc1ccc(-c2cc(NC(=O)CCC(=O)c3ccc4c(c3)CCO4)nc(-c3ccccc3)c2)cc1` [Example 158, methyl 3-[4-(2-{[4-(2,3-dihydro-1-benzofuran-5-yl)-4-oxobutanoyl]amino}-6-phenylpyridin-4-yl)phenyl]propanoate], the IC50 was 50 to 500 nM.

For the compound `CCOc1ccc(C(=O)CCC(=O)Nc2cc(-c3ccc(CCC(=O)OC)cc3)cc(-c3ccccc3)n2)cc1OCC` [Example 126, methyl 3-[4-(2-{[4-(3,4-diethoxyphenyl)-4-oxobutanoyl]amino}-6-phenylpyridin-4-yl)phenyl]propanoate], the IC50 is 50 to 500 nM.

As for `CCCCOCCOc1cc(NC(=O)CCC(=O)c2ccc(OCC)c(OCC)c2)nc(-c2ccccc2)c1` [Example 107, N-[4-(2-butoxyethoxy)-6-phenylpyridin-2-yl]-4-(3,4-diethoxyphenyl)-4-oxobutanamide], the IC50 fell in the range of 50 to 500 nM.

With `CCOc1ccc(C(=O)CCC(=O)Nc2cc(-c3ccc(/C=C/C(=O)OC)cc3)cc(-c3ccccc3)n2)cc1OCC` [Example 127, methyl (2E)-3-[4-(2-{[4-(3,4-diethoxyphenyl)-4-oxobutanoyl]amino}-6-phenylpyridin-4-yl)phenyl]acrylate], the IC50 is 500 to 10000 nM.

As for `CCOc1ccc(C(=O)CCC(=O)Nc2cc(-c3cccc(C(=O)O)c3)cc(-c3ccccc3)n2)cc1OCC` [Example 138, 3-(2-{[4-(3,4-diethoxyphenyl)-4-oxobutanoyl]amino}-6-phenylpyridin-4-yl)benzoic acid], the IC50 was in the range of 500 to 10000 nM.

Consider `CCOc1ccc(C(=O)CCC(=O)Nc2cc(-c3ccccc3)c3ccccc3n2)cc1` [Example 79, 4-(4-ethoxyphenyl)-4-oxo-N-(4-phenylquinolin-2-yl)butanamide], for which the IC50 is 10 to 50 nM.

`O=C(CCC(=O)c1ccc2c(c1)CCO2)Nc1cc(-c2ccccc2O)cc(-c2ccccc2)n1` [Example 177, 4-(2,3-dihydro-1-benzofuran-5-yl)-N-[4-(2-hydroxyphenyl)-6-phenylpyridin-2-yl]-4-oxobutanamide]: the IC50 lay in the range of 10 to 50 nM.
